In PubChem BioAssay (NCI):
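A five-concentration, 48-hour dose response in 96-well plates underlies each endpoint, interpolated linearly between surrounding concentrations. GI50: concentration for 50% inhibition of growth. TGI: total growth inhibition.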

Key:
Experiment in all cases: inhibition of tumour cell growth, NCI panel, 48 h
786-0 renal = tested on: 786-0 renal
A498 renal = tested on: A498 renal
A549 NSCLC = tested on: A549 NSCLC
ACHN renal = tested on: ACHN renal
BT-549 breast = tested on: BT-549 breast
CCRF-CEM leukemia = tested on: CCRF-CEM leukemia
COLO 205 colon = tested on: COLO 205 colon
DU-145 prostate = tested on: DU-145 prostate
EKVX NSCLC = tested on: EKVX NSCLC
HCC-2998 colon = tested on: HCC-2998 colon
HCT-116 colon = tested on: HCT-116 colon
HCT-15 colon = tested on: HCT-15 colon
HL-60(TB) leukemia = tested on: HL-60(TB) leukemia
HOP-62 NSCLC = tested on: HOP-62 NSCLC
HOP-92 NSCLC = tested on: HOP-92 NSCLC
HS 578T breast = tested on: HS 578T breast
HT29 colon = tested on: HT29 colon
IGROV1 ovarian = tested on: IGROV1 ovarian
K-562 leukemia = tested on: K-562 leukemia
KM12 colon = tested on: KM12 colon
LOX IMVI melanoma = tested on: LOX IMVI melanoma
M14 melanoma = tested on: M14 melanoma
MALME-3M melanoma = tested on: MALME-3M melanoma
MCF7 breast = tested on: MCF7 breast
MDA-MB-231 breast = tested on: MDA-MB-231 breast
MDA-MB-435 = tested on: MDA-MB-435
MOLT-4 leukemia = tested on: MOLT-4 leukemia
NCI-H23 lung = tested on: NCI-H23 lung
NCI-H460 lung = tested on: NCI-H460 lung
NCI-H522 lung = tested on: NCI-H522 lung
NCI/ADR-RES ovarian = tested on: NCI/ADR-RES ovarian
OVCAR-3 ovarian = tested on: OVCAR-3 ovarian
OVCAR-4 ovarian = tested on: OVCAR-4 ovarian
OVCAR-5 ovarian = tested on: OVCAR-5 ovarian
OVCAR-8 ovarian = tested on: OVCAR-8 ovarian
PC-3 prostate = tested on: PC-3 prostate
RPMI-8226 leukemia = tested on: RPMI-8226 leukemia
RXF 393 renal = tested on: RXF 393 renal
SF-268 CNS = tested on: SF-268 CNS
SF-295 CNS = tested on: SF-295 CNS
SF-539 CNS = tested on: SF-539 CNS
SK-MEL-2 melanoma = tested on: SK-MEL-2 melanoma
SK-MEL-28 melanoma = tested on: SK-MEL-28 melanoma
SK-MEL-5 melanoma = tested on: SK-MEL-5 melanoma
SK-OV-3 ovarian = tested on: SK-OV-3 ovarian
SNB-19 CNS = tested on: SNB-19 CNS
SNB-75 CNS = tested on: SNB-75 CNS
SR leukemia = tested on: SR leukemia
SW-620 colon = tested on: SW-620 colon
T-47D breast = tested on: T-47D breast
TK-10 renal = tested on: TK-10 renal
U251 CNS = tested on: U251 CNS
UACC-257 melanoma = tested on: UACC-257 melanoma
UACC-62 melanoma = tested on: UACC-62 melanoma
UO-31 renal = tested on: UO-31 renal
CAKI-1 renal = tested on: CAKI-1 renal
NCI-H226 lung = tested on: NCI-H226 lung
SN12C renal = tested on: SN12C renal

Cc1ccc(C2C3=C(N=c4s/c(=C/c5ccc(Br)cc5)c(=O)n42)c2ccc4ccccc4c2OCC3)cc1 (stereo unspecified)
GI50 (786-0 renal): > 100 µM | TGI (786-0 renal): > 100 µM | GI50 (A498 renal): > 100 µM | TGI (A498 renal): > 100 µM | GI50 (A549 NSCLC): > 100 µM | TGI (A549 NSCLC): > 100 µM | GI50 (ACHN renal): > 100 µM | TGI (ACHN renal): > 100 µM | GI50 (BT-549 breast): > 100 µM | TGI (BT-549 breast): > 100 µM | GI50 (CCRF-CEM leukemia): > 100 µM | TGI (CCRF-CEM leukemia): > 100 µM | GI50 (COLO 205 colon): > 100 µM | TGI (COLO 205 colon): > 100 µM | GI50 (DU-145 prostate): > 100 µM | TGI (DU-145 prostate): > 100 µM | GI50 (EKVX NSCLC): > 100 µM | TGI (EKVX NSCLC): > 100 µM | GI50 (HCC-2998 colon): > 100 µM | TGI (HCC-2998 colon): > 100 µM | GI50 (HCT-116 colon): > 100 µM | TGI (HCT-116 colon): > 100 µM | GI50 (HCT-15 colon): 2.89 µM | TGI (HCT-15 colon): > 100 µM | GI50 (HL-60(TB) leukemia): > 100 µM | TGI (HL-60(TB) leukemia): > 100 µM | GI50 (HOP-62 NSCLC): > 100 µM | TGI (HOP-62 NSCLC): > 100 µM | GI50 (HOP-92 NSCLC): > 100 µM | TGI (HOP-92 NSCLC): > 100 µM | GI50 (HS 578T breast): > 100 µM | TGI (HS 578T breast): > 100 µM | GI50 (HT29 colon): 67.8 µM | TGI (HT29 colon): > 100 µM | GI50 (IGROV1 ovarian): > 100 µM | TGI (IGROV1 ovarian): > 100 µM | GI50 (K-562 leukemia): > 100 µM | TGI (K-562 leukemia): > 100 µM | GI50 (KM12 colon): > 100 µM | TGI (KM12 colon): > 100 µM | GI50 (LOX IMVI melanoma): > 100 µM | TGI (LOX IMVI melanoma): > 100 µM | GI50 (M14 melanoma): > 100 µM | TGI (M14 melanoma): > 100 µM | GI50 (MALME-3M melanoma): 54.9 µM | TGI (MALME-3M melanoma): > 100 µM | GI50 (MCF7 breast): > 100 µM | TGI (MCF7 breast): > 100 µM | GI50 (MDA-MB-231 breast): > 100 µM | TGI (MDA-MB-231 breast): > 100 µM | GI50 (MDA-MB-435): > 100 µM | TGI (MDA-MB-435): > 100 µM | GI50 (MOLT-4 leukemia): > 100 µM | TGI (MOLT-4 leukemia): > 100 µM | GI50 (NCI-H23 lung): > 100 µM | TGI (NCI-H23 lung): > 100 µM | GI50 (NCI-H460 lung): > 100 µM | TGI (NCI-H460 lung): > 100 µM | GI50 (NCI-H522 lung): > 100 µM | TGI (NCI-H522 lung): > 100 µM | GI50 (NCI/ADR-RES ovarian): > 100 µM | TGI (NCI/ADR-RES ovarian): > 100 µM | GI50 (OVCAR-3 ovarian): > 100 µM | TGI (OVCAR-3 ovarian): > 100 µM | GI50 (OVCAR-4 ovarian): > 100 µM | TGI (OVCAR-4 ovarian): > 100 µM | GI50 (OVCAR-5 ovarian): > 100 µM | TGI (OVCAR-5 ovarian): > 100 µM | GI50 (OVCAR-8 ovarian): > 100 µM | TGI (OVCAR-8 ovarian): > 100 µM | GI50 (PC-3 prostate): > 100 µM | TGI (PC-3 prostate): > 100 µM | GI50 (RPMI-8226 leukemia): > 100 µM | TGI (RPMI-8226 leukemia): > 100 µM | GI50 (RXF 393 renal): > 100 µM | TGI (RXF 393 renal): > 100 µM | GI50 (SF-268 CNS): > 100 µM | TGI (SF-268 CNS): > 100 µM | GI50 (SF-295 CNS): > 100 µM | TGI (SF-295 CNS): > 100 µM | GI50 (SF-539 CNS): > 100 µM | TGI (SF-539 CNS): > 100 µM | GI50 (SK-MEL-2 melanoma): > 100 µM | TGI (SK-MEL-2 melanoma): > 100 µM | GI50 (SK-MEL-28 melanoma): > 100 µM | TGI (SK-MEL-28 melanoma): > 100 µM | GI50 (SK-MEL-5 melanoma): > 100 µM | TGI (SK-MEL-5 melanoma): > 100 µM | GI50 (SK-OV-3 ovarian): > 100 µM | TGI (SK-OV-3 ovarian): > 100 µM | GI50 (SNB-19 CNS): > 100 µM | TGI (SNB-19 CNS): > 100 µM | GI50 (SNB-75 CNS): > 100 µM | TGI (SNB-75 CNS): > 100 µM | GI50 (SR leukemia): > 100 µM | TGI (SR leukemia): > 100 µM | GI50 (SW-620 colon): > 100 µM | TGI (SW-620 colon): > 100 µM | GI50 (T-47D breast): > 100 µM | TGI (T-47D breast): > 100 µM | GI50 (TK-10 renal): > 100 µM | TGI (TK-10 renal): > 100 µM | GI50 (U251 CNS): > 100 µM | TGI (U251 CNS): > 100 µM | GI50 (UACC-257 melanoma): 35.7 µM | TGI (UACC-257 melanoma): > 100 µM | GI50 (UACC-62 melanoma): 67.9 µM | TGI (UACC-62 melanoma): > 100 µM | GI50 (UO-31 renal): > 100 µM | TGI (UO-31 renal): > 100 µM

COc1cc2c(cc1OCCCCCCCCN1C(=O)c3cccc4cccc(c34)C1=O)N=C[C@@H]1CCCN1C2=O
TGI (786-0 renal): > 100 µM | TGI (A549 NSCLC): > 100 µM | TGI (ACHN renal): > 100 µM | TGI (BT-549 breast): 35.1 µM | TGI (CAKI-1 renal): 52.6 µM | TGI (CCRF-CEM leukemia): 7.28 µM | TGI (COLO 205 colon): 21.7 µM | TGI (DU-145 prostate): > 100 µM | TGI (EKVX NSCLC): 35.7 µM | TGI (HCC-2998 colon): 30.7 µM | TGI (HCT-116 colon): > 100 µM | TGI (HCT-15 colon): 32.7 µM | TGI (HL-60(TB) leukemia): 52.3 µM | TGI (HOP-62 NSCLC): > 100 µM | TGI (HS 578T breast): > 100 µM | TGI (HT29 colon): 36.2 µM | TGI (IGROV1 ovarian): 64.7 µM | TGI (K-562 leukemia): 23.1 µM | TGI (KM12 colon): 52 µM | TGI (LOX IMVI melanoma): 25.5 µM | TGI (M14 melanoma): > 100 µM | TGI (MALME-3M melanoma): 49.2 µM | TGI (MCF7 breast): 22.3 µM | TGI (MDA-MB-231 breast): 34 µM | TGI (MDA-MB-435): 51.7 µM | TGI (MOLT-4 leukemia): 9.42 µM | TGI (NCI-H226 lung): 46.8 µM | TGI (NCI-H23 lung): 36.3 µM | TGI (NCI-H460 lung): 72 µM | TGI (NCI-H522 lung): 39.9 µM | TGI (NCI/ADR-RES ovarian): 19.4 µM | TGI (OVCAR-3 ovarian): 55.9 µM | TGI (OVCAR-4 ovarian): 7.41 µM | TGI (OVCAR-5 ovarian): 66.2 µM | TGI (OVCAR-8 ovarian): 57.8 µM | TGI (PC-3 prostate): 27.6 µM | TGI (RPMI-8226 leukemia): 8.53 µM | TGI (RXF 393 renal): 29.7 µM | TGI (SF-268 CNS): 58.5 µM | TGI (SF-295 CNS): 43 µM | TGI (SF-539 CNS): 13.2 µM | TGI (SK-MEL-2 melanoma): 74.6 µM | TGI (SK-MEL-28 melanoma): 37.9 µM | TGI (SK-MEL-5 melanoma): 25.4 µM | TGI (SK-OV-3 ovarian): 9.72 µM | TGI (SN12C renal): 63.9 µM | TGI (SNB-19 CNS): > 100 µM | TGI (SNB-75 CNS): 10.3 µM | TGI (SR leukemia): 21.7 µM | TGI (SW-620 colon): > 100 µM | TGI (T-47D breast): > 100 µM | TGI (TK-10 renal): > 100 µM | TGI (U251 CNS): 25.3 µM | TGI (UACC-257 melanoma): 68.8 µM | TGI (UACC-62 melanoma): 28.4 µM | TGI (UO-31 renal): > 100 µM
